Measured values taken from patent publication US12427134B2, “Methods of reducing the risk of cardiovascular events in a subject with atrial fibrillation and/or atrial flutter” (priority 2019, dated 2025).

Test system: hypertriglyceridemic patients with cardiovascular disease or at high risk for cardiovascular disease
Assay: REDUCE-IT: total (first and subsequent/recurrent) ischemic events analyses (negative binomial, Andersen-Gill, Wei-Lin-Weissfeld, joint frailty)
Format: in vivo, human
Settings: for Cardiovascular Death, HR (95% CI) / Non-fatal Cardiovascular Event, HR (95% CI): joint frailty model; for Key secondary composite endpoint, HR (95% CI) / Primary composite endpoint, HR (95% CI): modified WLW
Procedure: The primary outcome for the study was total recurrent events consisting of the composite of cardiovascular death, nonfatal myocardial infarction, nonfatal stroke, coronary revascularization, or hospitalization for unstable angina. Recurrent event analyses were also performed for the key secondary endpoint, a composite of cardiovascular death, non fatal myocardial infarction, or non-fatal stroke. For each of these composite endpoints, the effects of icosapent ethyl in the secondary and primary prevention strata were examined separately.
Demographic and baseline disease characteristics are presented using frequencies and percentages for categorical variables and medians with interquartile ranges for continuous variables. Between treatment group comparisons were derived using the chi-square test for categorical variables and Wilcoxon rank test for continuous variables. All clinical endpoint events used in the efficacy analyses were adjudicated by an independent Clinical Endpoint Committee (CEC) who were blinded to the treatment assignment. Since the primary efficacy endpoint was the time from randomization to the first occurrence of any component of the composite endpoint, and recurrence of such events within each patient is possible, a pre-specified analysis using a Cox proportional-hazard with the counting-process formulation of Andersen and Gill was performed to model the first and all recurrent cardiovascular events. Hazard ratios (HR) and corresponding 95% confidence intervals (CI) are reported from this model. In addition, as a marginal model and an extension of survival models based on the Cox proportional hazard model, the modified Wei-Lin-Weissfeld (WLW) method for analysis of recurrent events in the presence of deaths was carried out as a supportive analysis. In addition, as pre-specified, a recurrent event analysis using the Andersen-Gill and Wei-Lin-Weissfeld methods were carried out for the individual primary event components other than CV death. Though not pre-specified, additional recurrent event analyses were performed for the key secondary endpoint, which is a composite of CV death, non-fatal MI, or non-fatal stroke, and for the primary endpoint and the key secondary endpoint in the primary and secondary prevention strata to explore further the consistency of clinical benefit of icosapent ethyl. In subgroup analyses of the two cardiovascular risk strata (i.e., primary and secondary prevention), site-level discrepancies in cardiovascular risk group assignment occurring at entry and detected during the study (1.8%) were adjusted to conform with documented medical history data prior to randomization. All efficacy analyses were performed according to the intention-to-treat principle. All tests were based on a 2-sided nominal significance level of 5% with no adjustments for multiple comparisons.
The following study was a multi-center, placebo-controlled clinical trial the details of which are described above in Example 1, the REDUCE-IT design. […] The main outcomes were total primary composite endpoint events defined as cardiovascular death, nonfatal myocardial infarction, nonfatal stroke, coronary revascularization, or hospitalization for unstable angina and total key secondary composite endpoint events defined as cardiovascular death, nonfatal myocardial infarction, or nonfatal stroke. In the context of this study, total events refer to any first event as well as any subsequent event. Differences in total events were determined using other statistical models, including Andersen-Gill, Wei-Lin-Weisfeld (Li and Lagakos), both pre-specified, and a post hoc and joint-frailty analysis.
For the present prespecified analysis, the primary outcome was the total of first plus subsequent ischemic events consisting of the composite of cardiovascular death, nonfatal myocardial infarction, nonfatal stroke, coronary revascularization, or hospitalization for unstable angina. […]

[1] = Andersen-Gill (I), adjusted, full dataset
[2] = Andersen-Gill (I), adjusted, reduced dataset
[3] = Andersen-Gill (I), unadjusted, full dataset
[4] = Andersen-Gill (I), unadjusted, reduced dataset
[5] = Andersen-Gill (II), adjusted, full dataset
[6] = Andersen-Gill (II), adjusted, reduced dataset
[7] = Andersen-Gill (II), unadjusted, full dataset
[8] = Andersen-Gill (II), unadjusted, reduced dataset
[9] = as summarised in the Example 6 conclusion
[10] = including same-day recurrent events, ITT, denominator total number of events in category
[11] = key secondary endpoint, adjusted, reduced dataset
[12] = key secondary endpoint, unadjusted, reduced dataset
[13] = primary endpoint, adjusted, reduced dataset
[14] = primary endpoint, unadjusted, reduced dataset
[15] = first event, adjusted, full dataset
[16] = first event, adjusted, reduced dataset
[17] = first event, unadjusted, full dataset
[18] = first event, unadjusted, reduced dataset
[19] = second event, adjusted, full dataset
[20] = second event, adjusted, reduced dataset
[21] = second event, unadjusted, full dataset
[22] = second event, unadjusted, reduced dataset
[23] = third event, adjusted, full dataset
[24] = third event, adjusted, reduced dataset
[25] = third event, unadjusted, full dataset
[26] = third event, unadjusted, reduced dataset
[27] = negative binomial, adjusted, full dataset
[28] = negative binomial, adjusted, reduced dataset
[29] = negative binomial, unadjusted, full dataset
[30] = negative binomial, unadjusted, reduced dataset
[31] = per 100 patients treated for five years
[32] = per 1000 patients treated for five years
[33] = primary composite endpoint, after reduction, share of overall events in category
[34] = total events including same-day recurrent events, ITT, denominator total number of events in category

Structure (SMILES): CC/C=C\C/C=C\C/C=C\C/C=C\C/C=C\CCCC(=O)OCC [AMR101, eicosapentaenoic acid ethyl ester]
- Total key secondary composite endpoint events, HR (95% CI) [1]: 0.71
- Total primary composite endpoint events, HR (95% CI) [1]: 0.68
- Total key secondary composite endpoint events, HR (95% CI) [2]: 0.72
- Total primary composite endpoint events, HR (95% CI) [2]: 0.69
- Total key secondary composite endpoint events, HR (95% CI) [3]: 0.71
- Total primary composite endpoint events, HR (95% CI) [3]: 0.68
- Total key secondary composite endpoint events, HR (95% CI) [4]: 0.72
- Total primary composite endpoint events, HR (95% CI) [4]: 0.69
- Total key secondary composite endpoint events, HR (95% CI) [5]: 0.71
- Total primary composite endpoint events, HR (95% CI) [5]: 0.68
- Total key secondary composite endpoint events, HR (95% CI) [6]: 0.72
- Total primary composite endpoint events, HR (95% CI) [6]: 0.69
- Total key secondary composite endpoint events, HR (95% CI) [7]: 0.71
- Total primary composite endpoint events, HR (95% CI) [7]: 0.68
- Total key secondary composite endpoint events, HR (95% CI) [8]: 0.72
- Total primary composite endpoint events, HR (95% CI) [8]: 0.69
- Total key secondary endpoints, number of events (Example 2, overall, 861 with placebo): 590
- Total key secondary endpoint events, rate ratio (Example 3): 0.72
- Total key secondary endpoint events, rate ratio [9]: 0.71
- Total primary endpoint events, rate ratio [9]: 0.69
- Key Secondary Endpoint Events: Others, % [10]: (52.9) %
- Key Secondary Endpoint Events: ≥1 event, % [10]: (43.1) %
- Key Secondary Endpoint Events: ≥2 events, % [10]: (37.9) %
- Key Secondary Endpoint Events: ≥3 events, % [10]: (35.1) %
- Key Secondary Endpoint Events: ≥4 events, % [10]: (42.9) %
- Primary Endpoint Events: Others, % [10]: (35.0) %
- Primary Endpoint Events: ≥1 event, % [10]: (43.9) %
- Primary Endpoint Events: ≥2 events, % [10]: (39.2) %
- Primary Endpoint Events: ≥3 events, % [10]: (35.3) %
- Primary Endpoint Events: ≥4 events, % [10]: (27.9) %
- Cardiovascular Death, HR (95% CI) [11]: 0.79
- Non-fatal Cardiovascular Event, HR (95% CI) [11]: 0.68
- Cardiovascular Death, HR (95% CI) [12]: 0.79
- Non-fatal Cardiovascular Event, HR (95% CI) [12]: 0.68
- Cardiovascular Death, HR (95% CI) [13]: 0.80
- Non-fatal Cardiovascular Event, HR (95% CI) [13]: 0.67
- Cardiovascular Death, HR (95% CI) [14]: 0.80
- Non-fatal Cardiovascular Event, HR (95% CI) [14]: 0.66
- Key secondary endpoint: fatal events, % (key secondary composite endpoint, after reduction, share of overall events in category): 45.0%
- Key secondary endpoint: total events before reduction, % (key secondary composite endpoint, before reduction, share of overall events in category): 42.0%
- Key secondary composite endpoint, HR (95% CI) [15]: 0.74
- Primary composite endpoint, HR (95% CI) [15]: 0.75
- Key secondary composite endpoint, HR (95% CI) [16]: 0.74
- Primary composite endpoint, HR (95% CI) [16]: 0.75
- Key secondary composite endpoint, HR (95% CI) [17]: 0.74
- Primary composite endpoint, HR (95% CI) [17]: 0.76
- Key secondary composite endpoint, HR (95% CI) [18]: 0.74
- Primary composite endpoint, HR (95% CI) [18]: 0.76
- Key secondary composite endpoint, HR (95% CI) [19]: 0.75
- Primary composite endpoint, HR (95% CI) [19]: 0.68
- Key secondary composite endpoint, HR (95% CI) [20]: 0.75
- Primary composite endpoint, HR (95% CI) [20]: 0.68
- Key secondary composite endpoint, HR (95% CI) [21]: 0.75
- Primary composite endpoint, HR (95% CI) [21]: 0.69
- Key secondary composite endpoint, HR (95% CI) [22]: 0.75
- Primary composite endpoint, HR (95% CI) [22]: 0.69
- Key secondary composite endpoint, HR (95% CI) [23]: 0.79
- Primary composite endpoint, HR (95% CI) [23]: 0.70
- Key secondary composite endpoint, HR (95% CI) [24]: 0.79
- Primary composite endpoint, HR (95% CI) [24]: 0.69
- Key secondary composite endpoint, HR (95% CI) [25]: 0.79
- Primary composite endpoint, HR (95% CI) [25]: 0.70
- Key secondary composite endpoint, HR (95% CI) [26]: 0.79
- Primary composite endpoint, HR (95% CI) [26]: 0.69
- Total primary endpoint events, rate ratio (negative binomial model, Example 3): 0.70
- Total key secondary composite endpoint events, HR (95% CI) [27]: 0.71
- Total primary composite endpoint events, RR (95% CI) [27]: 0.69
- Total key secondary composite endpoint events, RR (95% CI) [28]: 0.72
- Total primary composite endpoint events, RR (95% CI) [28]: 0.70
- Total key secondary composite endpoint events, RR (95% CI) [29]: 0.71
- Total primary composite endpoint events, RR (95% CI) [29]: 0.67
- Total key secondary composite endpoint events, RR (95% CI) [30]: 0.71
- Total primary composite endpoint events, RR (95% CI) [30]: 0.68
- Total key secondary endpoint events, HR (overall): 0.71
- Cardiovascular deaths that could be prevented [31]: 1
- Coronary revascularizations that could be prevented [31]: 8
- Episodes of unstable angina that could be prevented [31]: 2
- Myocardial infarctions that could be prevented [31]: 4
- Strokes that could be prevented [31]: 1
- Cardiovascular deaths that could be prevented [32]: 12
- Coronary revascularizations that could be prevented [32]: 76
- Episodes of hospitalization for unstable angina that could be prevented [32]: 16
- Myocardial infarctions that could be prevented [32]: 42
- Strokes that could be prevented [32]: 14
- Primary endpoint: fatal events, % [33]: (45.0) %
- Primary endpoint: total events after reduction, % [33]: (41.0) %
- Total key secondary endpoint events, HR (primary prevention stratum): 0.71
- Total key secondary endpoint events, HR (secondary prevention stratum): 0.70
- Key Secondary Endpoint Events, % [34]: (42.0) %
- Primary Endpoint Events, % [34]: (40.7) %
